Some test systems named below: A498 renal; COLO 205 colon; MALME-3M melanoma; MCF7 breast; NCI-H23 lung; OVCAR-3 ovarian; SF-539 CNS; SN12C renal; UACC-257 melanoma; UACC-62 melanoma.
Common to all, as to assay: NCI anticancer screen, dose series, 48 h

Values joined by “and” are separate entries in the source; they are usually repeats but may differ in a detail not shown here. Identical values can stand only once.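 Where inhibition never reached the appropriate level, the endpoint shown equals the highest concentration tested. Otherwise, values were interpolated linearly from a five-concentration, 48-hour dose response in 96-well plates. At the GI50, growth is halved. TGI marks complete inhibition of growth.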

In the case of `O=C(Cn1ccnc1[N+](=O)[O-])N(CCO)CCO`, the GI50 in the test with A498 renal is greater than 250 µM; in the test on COLO 205 colon, greater than 250 µM; in the test on MALME-3M melanoma it was greater than 1250 µM; with MCF7 breast, greater than 250 µM; in the test with NCI-H23 lung, greater than 1250 µM; with OVCAR-3 ovarian, greater than 312 µM. Moreover, the GI50 is greater than 1250 µM with SF-539 CNS, greater than 1250 µM in the test on SN12C renal, greater than 1250 µM with UACC-257 melanoma and greater than 943 µM with UACC-62 melanoma. For the same compound, the TGI was greater than 1250 µM with A498 renal; greater than 1250 µM with COLO 205 colon; 224 µM and > 1250 µM in the test on MALME-3M melanoma; greater than 1250 µM in the test on MCF7 breast; greater than 1250 µM in the test with NCI-H23 lung; greater than 828 µM in the test on OVCAR-3 ovarian. The TGI in the test with SF-539 CNS is greater than 1250 µM; in the test on SN12C renal, greater than 1250 µM; with UACC-257 melanoma, greater than 1250 µM; with UACC-62 melanoma, > 250 µM and 1240 µM.
With `Cc1ccc(NS(=O)(=O)c2ccc(-c3cnc(C4CC4)o3)cc2)cc1`, the GI50 is 2.05 µM in the test with A498 renal; 3.64 µM in the test on COLO 205 colon; 2.48 µM in the test with MALME-3M melanoma; 1.55 µM in the test with MCF7 breast; 4.1 µM in the test on NCI-H23 lung; 2.1 µM in the test with OVCAR-3 ovarian. Also, the GI50 in the test on SF-539 CNS was 3.32 µM; in the test with SN12C renal it was 4.1 µM; in the test with UACC-257 melanoma it was 10.8 µM; in the test on UACC-62 melanoma, 3.06 µM. Besides, the TGI in the test on A498 renal is 6.83 µM; in the test with COLO 205 colon it was 16.1 µM; with MALME-3M melanoma, 17.6 µM; in the test on MCF7 breast it was 14.9 µM; in the test on NCI-H23 lung, 17.9 µM; in the test on OVCAR-3 ovarian, 6.13 µM. For the same compound, the TGI in the test on SF-539 CNS was 13 µM; in the test with SN12C renal it was 17.2 µM; in the test with UACC-257 melanoma, 27.8 µM; in the test with UACC-62 melanoma, 14.9 µM.
Take `OCC1SC(n2cnc3cncnc32)C(O)C1O` (stereo not given): the GI50 in the test on A498 renal, with COLO 205 colon, in the test on MALME-3M melanoma, in the test with MCF7 breast, in the test on NCI-H23 lung and with OVCAR-3 ovarian was greater than 100 µM each time. Further, the GI50 in the test with SF-539 CNS, in the test with SN12C renal, in the test with UACC-257 melanoma and in the test with UACC-62 melanoma was greater than 100 µM throughout. For the same compound, the TGI in the test with A498 renal, in the test with COLO 205 colon, in the test with MALME-3M melanoma, in the test on MCF7 breast, in the test with NCI-H23 lung and with OVCAR-3 ovarian was greater than 100 µM in each case. Also, the TGI with SF-539 CNS, in the test with SN12C renal, with UACC-257 melanoma and in the test with UACC-62 melanoma was greater than 100 µM throughout.

The values above are taken from PubChem BioAssay (NCI).
